According to patent publication US20230295200A1 (REGENTS OF THE UNIVERSITY OF MICHIGAN, priority 2022, published 2023):

Legend:
[1] = molecular target: T1, STAT6 protein (Homo sapiens, UniProt P42226); experiment: Fluorescence polarization (FP) binding assay, STAT6; settings: FP competition, 5 nM fluorescein-labeled tracer, 200 nM protein, PBS pH7.4; read-out: Binding STAT6
T1 sequence (P42226 1-847): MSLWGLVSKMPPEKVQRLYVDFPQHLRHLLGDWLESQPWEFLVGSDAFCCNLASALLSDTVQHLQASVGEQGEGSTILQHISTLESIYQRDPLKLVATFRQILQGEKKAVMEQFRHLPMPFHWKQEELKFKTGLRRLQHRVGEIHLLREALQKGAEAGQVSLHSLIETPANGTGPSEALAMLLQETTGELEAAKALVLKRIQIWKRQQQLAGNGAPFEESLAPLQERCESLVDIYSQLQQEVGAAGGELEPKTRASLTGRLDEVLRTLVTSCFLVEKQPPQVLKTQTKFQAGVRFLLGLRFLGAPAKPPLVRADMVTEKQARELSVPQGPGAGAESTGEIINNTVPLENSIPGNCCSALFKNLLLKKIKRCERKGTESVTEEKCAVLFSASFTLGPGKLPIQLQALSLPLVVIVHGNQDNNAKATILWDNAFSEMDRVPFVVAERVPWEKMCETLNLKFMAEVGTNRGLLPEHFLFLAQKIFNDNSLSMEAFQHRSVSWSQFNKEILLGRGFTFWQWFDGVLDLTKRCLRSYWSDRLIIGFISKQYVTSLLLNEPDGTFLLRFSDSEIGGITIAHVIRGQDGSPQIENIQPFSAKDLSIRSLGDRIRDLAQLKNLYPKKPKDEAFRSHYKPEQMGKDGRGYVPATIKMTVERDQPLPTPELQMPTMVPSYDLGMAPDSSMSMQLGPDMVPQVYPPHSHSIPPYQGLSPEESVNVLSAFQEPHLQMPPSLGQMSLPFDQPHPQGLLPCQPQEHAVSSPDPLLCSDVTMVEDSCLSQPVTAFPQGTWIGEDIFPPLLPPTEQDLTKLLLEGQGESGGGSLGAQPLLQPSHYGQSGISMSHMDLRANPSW
Summary of the method: (§1)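 Each well holds 200 nM STAT5 and/or STAT6 with 5 nM fluorescent tracer in PBS pH 7.4 (0.01% BGG, 0.01% Tween-20, 2 mM DTT). Binding reaches equilibrium over 1 h at room temperature after brief shaking, and polarization data are fitted nonlinearly.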

[2] = molecular target: T2, STAT5A (Homo sapiens, UniProt P42229); experiment: Fluorescence polarization (FP) binding assay, STAT5A; settings: FP competition, 5 nM fluorescein-labeled tracer, 200 nM protein, PBS pH7.4
T2 sequence (P42229 1-794): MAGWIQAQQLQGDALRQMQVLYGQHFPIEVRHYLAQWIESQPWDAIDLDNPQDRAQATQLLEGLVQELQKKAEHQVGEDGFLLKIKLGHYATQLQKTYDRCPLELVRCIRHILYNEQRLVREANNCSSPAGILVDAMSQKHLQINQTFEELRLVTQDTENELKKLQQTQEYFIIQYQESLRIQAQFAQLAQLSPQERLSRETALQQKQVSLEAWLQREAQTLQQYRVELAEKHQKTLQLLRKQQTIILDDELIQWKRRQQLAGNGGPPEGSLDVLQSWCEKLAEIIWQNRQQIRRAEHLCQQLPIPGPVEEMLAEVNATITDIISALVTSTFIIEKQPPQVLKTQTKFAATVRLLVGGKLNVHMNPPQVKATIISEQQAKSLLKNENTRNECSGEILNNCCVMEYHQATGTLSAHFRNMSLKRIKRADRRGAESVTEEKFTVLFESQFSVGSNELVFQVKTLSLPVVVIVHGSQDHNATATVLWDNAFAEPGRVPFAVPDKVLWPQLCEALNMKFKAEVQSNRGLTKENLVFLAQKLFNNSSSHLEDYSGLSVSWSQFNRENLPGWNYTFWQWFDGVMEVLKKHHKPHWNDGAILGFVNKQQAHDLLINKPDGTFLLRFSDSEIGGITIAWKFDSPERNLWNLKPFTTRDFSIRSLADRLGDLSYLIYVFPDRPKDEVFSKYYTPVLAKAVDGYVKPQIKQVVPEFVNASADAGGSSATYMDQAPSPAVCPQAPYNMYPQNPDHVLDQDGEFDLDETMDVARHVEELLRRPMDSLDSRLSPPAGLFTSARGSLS
Summary of the method: as §1

SMILES	Ki [1] [nM]	Ki [2] [nM]
Cc1ccccc1C1CN(C(=O)[C@@H]2CCCN2C(=O)[C@@H](NC(=O)c2cc3cc(C(F)(F)P(=O)(O)O)ccc3s2)C(C)(C)C)CCO1 (stereo partly drawn) [Compound 106, ((2-(((2S)-3,3-dimethyl-1-oxo-1-((2S)-2-(2-(o-tolyl)morpholine-4-carbonyl)pyrrolidin-1-yl)butan-2-yl)carbamoyl)benzo[b]thiophen-5-yl)difluoromethyl)phosphonic acid]	100 to 1000	1000 to 10000
Cc1ccc(C2CN(C(=O)[C@@H]3CCCN3C(=O)[C@@H](NC(=O)c3cc4cc(C(F)(F)P(=O)(O)O)ccc4s3)C(C)(C)C)CCO2)c(C)c1 (stereo partly drawn) [Compound 107, ((2-(((2S)-1-((2S)-2-(2-(2,4-dimethylphenyl)morpholine-4-carbonyl)pyrrolidin-1-yl)-3,3-dimethyl-1-oxobutan-2-yl)carbamoyl)benzo[b]thiophen-5-yl)difluoromethyl)phosphonic acid]	1000 to 10000	> 10000
Cc1cc(C2CN(C(=O)[C@@H]3CCCN3C(=O)[C@@H](NC(=O)c3cc4cc(C(F)(F)P(=O)(O)O)ccc4s3)C(C)(C)C)CCO2)ccc1F (stereo partly drawn) [Compound 108, (difluoro(2-(((2S)-1-((2S)-2-(2-(4-fluoro-3-methylphenyl)morpholine-4-carbonyl)pyrrolidin-1-yl)-3,3-dimethyl-1-oxobutan-2-yl)carbamoyl)benzo[b]thiophen-5-yl)methyl)phosphonic acid]	1000 to 10000	> 10000
CC(C)(C)[C@H](NC(=O)c1cc2cc(C(F)(F)P(=O)(O)O)ccc2s1)C(=O)N1CCC[C@H]1C(=O)N1CCOC(c2ccccc2F)C1 (stereo partly drawn) [Compound 109, (difluoro(2-(((2S)-1-((2S)-2-(2-(2-fluorophenyl)morpholine-4-carbonyl)pyrrolidin-1-yl)-3,3-dimethyl-1-oxobutan-2-yl)carbamoyl)benzo[b]thiophen-5-yl)methyl)phosphonic acid]	100 to 1000	> 10000
CC(C)(C)[C@H](NC(=O)c1cc2cc(C(F)(F)P(=O)(O)O)ccc2s1)C(=O)N1CCC[C@H]1C(=O)N1CCOC(c2ccc(F)cc2F)C1 (stereo partly drawn) [Compound 110, ((2-(((2S)-1-((2S)-2-(2-(2,4-difluorophenyl)morpholine-4-carbonyl)pyrrolidin-1-yl)-3,3-dimethyl-1-oxobutan-2-yl)carbamoyl)benzo[b]thiophen-5-yl)difluoromethyl)phosphonic acid]	1000 to 10000	> 10000
CC(C)(C)[C@H](NC(=O)c1cc2cc(C(F)(F)P(=O)(O)O)ccc2s1)C(=O)N1CCC[C@H]1C(=O)N1CCOC(c2ccc(F)c(F)c2)C1 (stereo partly drawn) [Compound 111, ((2-(((2S)-1-((2S)-2-(2-(3,4-difluorophenyl)morpholine-4-carbonyl)pyrrolidin-1-yl)-3,3-dimethyl-1-oxobutan-2-yl)carbamoyl)benzo[b]thiophen-5-yl)difluoromethyl)phosphonic acid]	100 to 1000	> 10000
CC(C)(C)[C@H](NC(=O)c1cc2cc(C(F)(F)P(=O)(O)O)ccc2s1)C(=O)N1CCC[C@H]1C(=O)N1CCOC(c2ccccc2Cl)C1 (stereo partly drawn) [Compound 112, ((2-(((2S)-1-((2S)-2-(2-(2-chlorophenyl)morpholine-4-carbonyl)pyrrolidin-1-yl)-3,3-dimethyl-1-oxobutan-2-yl)carbamoyl)benzo[b]thiophen-5-yl)difluoromethyl)phosphonic acid]	100 to 1000	> 10000
CC(C)(C)[C@H](NC(=O)c1cc2cc(C(F)(F)P(=O)(O)O)ccc2s1)C(=O)N1CCC[C@H]1C(=O)N1CCOC(c2ccc(F)c(Cl)c2)C1 (stereo partly drawn) [Compound 113, ((2-(((2S)-1-((2S)-2-(2-(3-chloro-4-fluorophenyl)morpholine-4-carbonyl)pyrrolidin-1-yl)-3,3-dimethyl-1-oxobutan-2-yl)carbamoyl)benzo[b]thiophen-5-yl)difluoromethyl)phosphonic acid]	100 to 1000	1000 to 10000
CC(C)(C)[C@H](NC(=O)c1cc2cc(C(F)(F)P(=O)(O)O)ccc2s1)C(=O)N1CCC[C@H]1C(=O)N1CCOC(c2ccc(Cl)c(Cl)c2)C1 (stereo partly drawn) [Compound 114, ((2-(((2S)-1-((2S)-2-(2-(3,4-dichlorophenyl)morpholine-4-carbonyl)pyrrolidin-1-yl)-3,3-dimethyl-1-oxobutan-2-yl)carbamoyl)benzo[b]thiophen-5-yl)difluoromethyl)phosphonic acid]	100 to 1000	1000 to 10000
CCOC(=O)C1CCN(C(=O)[C@@H]2CCCN2C(=O)[C@@H](NC(=O)c2cc3cc(C(F)(F)P(=O)(O)O)ccc3s2)C(C)(C)C)CC1c1ccccc1 (stereo partly drawn) [Compound 115, ((2-(((2S)-1-((2S)-2-(4-(ethoxycarbonyl)-3-phenylpiperidine-1-carbonyl)pyrrolidin-1-yl)-3,3-dimethyl-1-oxobutan-2-yl)carbamoyl)benzo[b]thiophen-5-yl)difluoromethyl)phosphonic acid]	1000 to 10000	> 10000
CC(=O)N1CC[C@H]2CC[C@@H](C(=O)N3CCOC[C@@H]3c3ccccc3)N2C(=O)[C@@H](NC(=O)c2cc3cc(C(F)(F)P(=O)(O)O)ccc3s2)C1 [Compound 120, ((2-(((5S,8S,10aR)-3-acetyl-6-oxo-8-((S)-3-phenylmorpholine-4-carbonyl)decahydropyrrolo[1,2-a][1,5]diazocin-5-yl)carbamoyl)benzo[b]thiophen-5-yl)difluoromethyl)phosphonic acid]	1000 to 10000	> 10000
CC(=O)N1CC[C@H]2CC[C@@H](C(=O)N3CCOC[C@H]3c3ccccc3)N2C(=O)[C@@H](NC(=O)c2cc3cc(C(F)(F)P(=O)(O)O)ccc3s2)C1 [Compound 121, ((2-(((5S,8S,10aR)-3-acetyl-6-oxo-8-((R)-3-phenylmorpholine-4-carbonyl)decahydropyrrolo[1,2-a][1,5]diazocin-5-yl)carbamoyl)benzo[b]thiophen-5-yl)difluoromethyl)phosphonic acid]	1000 to 10000	> 10000
CC(=O)NC(C)(C)[C@H](NC(=O)c1cc2cc(C(F)(F)P(=O)(O)O)ccc2s1)C(=O)N1CCC[C@H]1C(=O)N1CCO[C@H](c2ccccc2)C1 [Compound 122, ((2-(((S)-3-acetamido-3-methyl-1-oxo-1-((S)-2-((R)-2-phenylmorpholine-4-carbonyl)pyrrolidin-1-yl)butan-2-yl)carbamoyl)benzo[b]thiophen-5-yl)difluoromethyl)phosphonic acid]	100 to 1000	> 10000
CC(C)(C)[C@H](NC(=O)c1cc2cc(C(F)(F)P(=O)(O)O)ccc2s1)C(=O)N1CCC[C@H]1C(=O)N1CCC(C(=O)O)C(c2ccccc2)C1 (stereo partly drawn) [Compound 123, 1-(((S)-2-(5-(difluoro(phosphono)methyl)benzo [b]thiophene-2-carboxamido)-3,3-dimethylbutanoyl)-L-prolyl)-3-phenylpiperidine-4-carboxylic acid]	1000 to 10000	> 10000
CC(C)(C)[C@H](NC(=O)c1cc2cc(C(F)(F)P(=O)(O)O)ccc2s1)C(=O)N1CCC[C@H]1C(=O)N1CCCOC(c2ccccc2)C1 (stereo partly drawn) [Compound 124, ((2-(((2S)-3,3-dimethyl-1-oxo-1-((2S)-2-(2-phenyl-1,4-oxazepane-4-carbonyl)pyrrolidin-1-yl)butan-2-yl)carbamoyl)benzo[b]thiophen-5-yl)difluoromethyl)phosphonic acid]	100 to 1000	1000 to 10000
